Test results from paper PMC12114633, “α-Glucosidase Inhibition Mechanism and Anti-Hyperglycemic Effects of Flavonoids from Astragali Radix and Their Mixture Effects” (Pharmaceuticals, 2025).
Where two headings read alike, the source gives them in different places.

What was measured:
α-glucosidase [1] = biological target: T1, α-glucosidase (Saccharomyces cerevisiae, UniProt P53341); test: biochemical; assay type: binding; conditions: for binding to α-glucosidase (SPR): result in words
T1 construct: purchased Shanghai Yuanye Biotechnology Co., Shanghai, China Lot No. M23HS178879 (catalogue number not given)
T1 sequence (P53341 whole entry): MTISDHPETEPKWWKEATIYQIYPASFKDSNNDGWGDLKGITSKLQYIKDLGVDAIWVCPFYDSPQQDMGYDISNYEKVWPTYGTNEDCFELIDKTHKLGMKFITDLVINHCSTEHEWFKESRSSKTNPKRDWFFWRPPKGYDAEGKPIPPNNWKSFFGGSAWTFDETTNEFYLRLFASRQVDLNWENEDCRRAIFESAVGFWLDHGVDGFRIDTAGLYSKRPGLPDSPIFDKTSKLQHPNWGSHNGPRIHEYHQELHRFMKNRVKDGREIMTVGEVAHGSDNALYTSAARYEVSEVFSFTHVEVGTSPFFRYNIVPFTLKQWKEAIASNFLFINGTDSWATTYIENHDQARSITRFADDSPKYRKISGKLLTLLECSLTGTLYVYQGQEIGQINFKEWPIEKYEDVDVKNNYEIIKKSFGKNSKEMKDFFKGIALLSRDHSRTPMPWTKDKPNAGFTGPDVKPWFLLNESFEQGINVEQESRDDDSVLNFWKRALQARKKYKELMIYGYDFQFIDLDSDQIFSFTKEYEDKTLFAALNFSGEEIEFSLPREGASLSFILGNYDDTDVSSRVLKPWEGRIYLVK
Experimental: SPR analysis was performed using the Biacore 8K system (GE Healthcare, Uppsala, Sweden). α-Glucosidase (0.05 mg/mL) was fixed on the CM5 sensor chip by an amine coupling kit. Subsequently, various concentrations of the 16 flavonoids dissolved in 5% DMSO were continuously injected onto the surface of α-glucosidase coated surface. After each sample injection, the sensor chip surface was washed and regenerated with running buffer (PBS) at a flow rate of 30 µL/min. According to the 1:1 Langmuir model, the equilibrium dissociation constant (KD) was calculated by the Biacore evaluation software. For sensorgrams without significant kinetic features, the KD values were calculated using the steady-state analysis.

normal C57BL/6J mice = test: Oral sucrose test, postprandial blood glucose; assay type: in vivo; conditions: for Blood glucose levels: 30 min after sucrose 4 g/kg, n = 8, in mmol/L (unit assumed); for Rate of blood glucose reduction: vs model group, 30 min after sucrose
Source text: Male C57BL/6J mice of SPF grade, aged 6–8 weeks and weighing 18–22 g, were obtained from the Experimental Animal Science Department of Peking University. The mice were housed in a controlled environment with a 12:12 light/dark cycle and a constant temperature. They were provided with standard pellet feed and given free access to drinking water. To ensure acclimatization, the mice were allowed to adjust to the diet and housing conditions for one week prior to the experiment. All animal experiments were performed in compliance with the relevant laws and institutional guidelines for the care and use of laboratory animals in China. The experiments were approved by the Laboratory Animal Management and Ethics Committee of Peking University (LA2021443). Additionally, the certification number for the laboratory animal personnel is 1120111300011.
The 16 flavonoids were subsequently evaluated for their potential antihyperglycemic effects by using the oral sucrose test, which is commonly used to evaluate intestinal α-glucosidase inhibition in vivo [62]. Normal C57BL/6J mice were randomly divided into model groups and the 16 flavonoid compound groups (n = 8 per group), respectively. The flavonoids at different concentrations were suspended in 0.5% sodium carboxymethyl cellulose (CMC-Na). […] Fifteen minutes after drug administration, the mice were given a sucrose solution (4 g/kg). Blood samples were collected from the tail vein at 30 min after sucrose loading, and blood glucose levels were measured using an Accu-Chek Performa glucometer (Roche Diagnostics, SN: 79508621393, Shanghai, China). The rate of blood glucose reduction was calculated using the following Formula (4):(4) The rate of blood glucose reduction%=the model blood glucose-the sample blood glucose/the model blood glucose×100%

α-glucosidase [2] = biological target: T1, α-glucosidase; test: CD spectroscopy, secondary structure of α-glucosidase (BeStSel); conditions: for β-turn: free enzyme 11.7; for β-sheet: free enzyme 28.8; for random coil: free enzyme 45.2; for α-helix: free enzyme 14.4
Experimental: CD spectra in the far-UV region (190–250 nm) were scanned by using a CD spectrometer (JASCO-1.5 Tokyo, Japan). […] The slit width was set to 1 nm, and the baseline was calibrated with PBS (phosphate buffered saline). CD spectra were averaged over three scans under a constant nitrogen flow, with the buffer signal subtracted. The results were analyzed using the BeStSel database (https://bestsel.elte.hu/index.php, accessed on 16 May 2025).

[3] = biological target: T2, Saccharomyces cerevisiae α-glucosidase (Saccharomyces cerevisiae, UniProt P53341); test: biochemical; conditions: 5 mM pNPG, PBS pH 6.8, 37 °C
T2 construct: purchased Shanghai Yuanye Biotechnology Co., Shanghai, China Lot No. M23HS178879 (catalogue number not given)
T2 sequence (P53341 whole entry): as above
Experimental: (§1) The α-glucosidase inhibitory effects of flavonoids were evaluated as in a previous report with slight modifications (including changes in the concentrations of the enzyme, substrate, and Na2CO3). Briefly, 50 μL of phosphate-buffered saline (PBS, 0.1 M, pH 6.8), the test compound, and α-glucosidase (0.2 U/mL) were preincubated in a 96-well plate at 37 °C for 10 min. The reaction was then initiated by adding 50 μL of 5 mM pNPG as the substrate. Subsequently, the 96-well plate was incubated for an additional 30 min at 37 °C, then 50 μL of 0.2 M Na2CO3 was added to terminate the reaction. Absorbance was measured at under 405 nm.

α-glucosidase [4] = biological target: T1, α-glucosidase; test: Mixture effects of flavonoid combinations on α-glucosidase; assay type: biochemical; conditions: calculated from the dose–response curve
Experimental: as §1
The inhibitory activity of the composition was evaluated using the same method described in Section 3.2. […] The combination index (CI, Formula (3)) was subsequently used to assess the interactions between the compounds [60].(2) Y=Bottom+Top−Bottom/1+10^^((LogIC50−X)×HillSlope)
In Formula (3), (D)j represents the concentration of component j in the mixture needed to achieve an effect of x, while (Dx)j denotes the concentration of component j required to produce the same effect when acting alone. Here, x refers to the inhibition rate produced by the composition, and n indicates the number of individual compounds in the composition.

α-glucosidase [5] = biological target: T1, α-glucosidase; test: Inhibitory kinetic analysis (Lineweaver–Burk plot); assay type: biochemical; conditions: Lineweaver–Burk plots, pNPG 0.31–20 mM
Experimental: The type of inhibition was determined by using the kinetics curve and the Lineweaver–Burk plot. […] These compounds were incubated with α-glucosidase at 37 °C for 30 min. After incubation, various concentrations of pNPG (0.31–20 mM) were added, and absorbance was measured at 405 nm. The Lineweaver–Burk plot was obtained by plotting 1/[S] on the x-axis and 1/v on the y-axis, where [S] represents substrate concentration and v represents the reaction velocity.

α-glucosidase [6] = conditions: cited from earlier work
[7] = molar ratio 10:1, α-glucosidase 4 μM
[8] = molar ratio 40:1, α-glucosidase 4 μM
[9] = molar ratio compound:α-glucosidase 10:1, α-glucosidase 4 μM
[10] = kinetic model (1:1 Langmuir), read-out: KD
[11] = literature values, reference given, read-out: IC50 in References
[12] = α-glucosidase 0.2 U/mL, read-out: IC50

Row | Compound | Kd (α-glucosidase [1]) [µM] | binding to α-glucosidase (SPR) (α-glucosidase [1]) | Blood glucose levels (normal C57BL/6J mice; 10 mg/kg oral) | Rate of blood glucose reduction (normal C57BL/6J mice; 10 mg/kg oral) [%] | Blood glucose levels (normal C57BL/6J mice; 50 mg/kg oral) | Rate of blood glucose reduction (normal C57BL/6J mice; 50 mg/kg oral) [%] | Blood glucose levels (normal C57BL/6J mice; 100 mg/kg oral) | Rate of blood glucose reduction (normal C57BL/6J mice; 100 mg/kg oral) [%] | β-turn (α-glucosidase [2]; [7]) [%] | β-sheet (α-glucosidase [2]; [7]) [%] | random coil (α-glucosidase [2]; [7]) [%] | β-turn (α-glucosidase [2]; [8]) [%] | α-helix (α-glucosidase [2]; [8]) [%] | β-sheet (α-glucosidase [2]; [8]) [%] | random coil (α-glucosidase [2]; [8]) [%] | α-helix (α-glucosidase [2]; [9]) [%] | IC50 ([3]; IC50, α-glucosidase 0.2 U/mL) [µM] | IC05 (α-glucosidase [4]) [µM] | type of inhibition on α-glucosidase (α-glucosidase [5]) | also measured
1 | O=C1C[C@@H](c2ccc(O)cc2)Oc2cc(O)ccc21 [C3, liquiritigenin] | > 2000 | did not show binding | 14.06 ± 1.45 | -0.90 | 13.19 ± 1.35 | 5.38 | 11.58 ± 1.23 | 16.95 | 14.2 | 18.0 | 56.1 | 16.2 | 8.00 | 16.6 | 59.2 | 11.7 | 161 ± 36.3 | 13.71 | non-competitive inhibitors | –
2 | COc1ccc(C2COc3cc(O)ccc3C2)c(O)c1OC (stereo not shown) [C17, isomucronulatol] | > 2000 | did not show binding | 14.46 ± 0.69 | 6.32 | 14.29 ± 0.80 | 7.45 | 13.24 ± 1.18 | 14.25 | 11.7 | 24.3 | 49.4 | 13.6 | 17.4 | 31.3 | 37.8 | 14.6 | 354 ± 40.4 | – | mixed-type inhibitors | –
3 | Oc1ccc([C@H]2COc3cc(O)ccc3C2)cc1 [C29, equol] | 849 | – | 14.70 ± 1.36 | 8.20 | 13.93 ± 0.62 | 13.04 | 12.56 ± 1.87 | 21.55 | 14.5 | 23.5 | 51.1 | 13.2 | 8.50 | 23.4 | 55.0 | 10.9 | 131 ± 7.65 | – | mixed-type inhibitors | –
4 | O=C(/C=C/c1ccc(O)cc1)c1ccc(O)cc1O [C4, isoliquiritigenin] | > 2000 | did not show binding | 12.81 ± 1.00 | 8.07 | 13.05 ± 1.44 | 6.37 | – | – | 11.7 | 31.0 | 42.3 | 12.1 | 14.1 | 24.1 | 49.7 | 15.0 | 69.1 ± 10.7 | 9.73 | mixed-type inhibitors | Blood glucose levels (normal C57BL/6J mice; 250 mg/kg oral): 11.90 ± 0.62; Rate of blood glucose reduction (normal C57BL/6J mice; 250 mg/kg oral): 14.62%; IC15 (concentration corresponding to a 15% inhibition rate) (α-glucosidase [4]): 20 µM
5 | CC(=O)Cc1cc(=O)c2c(C)cc(O)c([C@@H]3O[C@H](CO)[C@@H](O)[C@H](O)[C@H]3OC(=O)/C=C/c3ccc(O)cc3)c2o1 [Aloeresin A, reference compound] | – | – | – | – | – | – | – | – | – | – | – | – | – | – | – | – | – | – | – | IC50 (α-glucosidase [6]; read-out: IC50): 11900 µM
6 | aquilarixanthone [reference compound] | – | – | – | – | – | – | – | – | – | – | – | – | – | – | – | – | – | – | – | IC50 (α-glucosidase [6]; read-out: IC50): 678 µM
7 | COc1cc(-c2oc3cc(O)cc(O)c3c(=O)c2OC2OC(CO)C(O)C(O)C2O)ccc1O (stereo not shown) [C14, isorhamnetin-3-O-glucoside] | – | – | 14.84 ± 0.62 | -2.50 | 12.66 ± 0.48 | 12.52 | 12.19 ± 0.81 | 15.80 | 12.8 | 33.7 | 40.4 | 15.7 | 7.80 | 19.8 | 56.6 | 13.1 | – | – | mixed-type inhibitors | Kd (α-glucosidase [1]; [10]): 383 µM; IC50 (α-glucosidase [6]; [11]): 275 µM; IC50 [3, 12]: 228 ± 34 µM
8 | O=c1c(-c2ccc(O)cc2)coc2cc(O)ccc12 [C11, daidzein] | 20 | – | – | – | – | – | – | – | 12.7 | 28.8 | 40.8 | 14.3 | 14.6 | 25.5 | 45.5 | 17.7 | 83.7 ± 20.2 | – | non-competitive inhibitors | IC50 (α-glucosidase [6]; [11]): 150 µM
9 | COc1ccc2c(c1OC)OC1c3ccc(O[C@@H]4O[C@H](CO)[C@@H](O)[C@H](O)[C@H]4O)cc3OCC21 (stereo partly shown) [C19, astrapterocarpan-3-O-glucoside] | – | – | 13.71 ± 0.78 | 11.17 | – | – | 13.31 ± 0.58 | 13.77 | 10.7 | 26.7 | 39.9 | 10.2 | 43.2 | 6.70 | 39.9 | 22.6 | – | 82.58 | non-competitive inhibitors | Kd (α-glucosidase [1]; [10]): 30 µM; Blood glucose levels (normal C57BL/6J mice; 1 mg/kg oral): 14.30 ± 1.16; Rate of blood glucose reduction (normal C57BL/6J mice; 1 mg/kg oral): 7.37%; IC50 [3, 12]: 348 ± 32.4 µM
